In brackets after ≈: the same amount, converted by molar mass. Read-outs that look alike come from different tables or passages of the source.
Tests used:
[1] = HPLC-MS determination of Ro metabolites in plasma of tumour-bearing mice; format: in vivo, C57BL/6J mice; conditions: plasma after 15 days Ro 25 mg/kg intraperitoneal; for detection in plasma of Ro-treated tumour-bearing mice: HPLC-MS
Procedure: B16F10 cells were cultured in DMEM containing 10% FBS. […] Normal and model mice were administered normal saline. […] The tumour inhibition rate was calculated.
Identification of the metabolites of Ro was done using the same HPLC Trap MS system as previously described. Briefly, an aliquot of 60 μL plasma samples was removed from the −80 °C storage and thawed under ambient temperature and mixed vigorously with 300 μL cold methanol. The supernatant was placed in a centrifuge tube (1500 μL) after 10 min of centrifugation at 10,000 rpm. The precipitate was washed three times using 100 μL cold methanol. All of the supernatants were combined and dried under nitrogen flow at ambient temperature. The residue was dissolved using 80 μL methanol (3 min of vortexing), and the solution was diluted in 240 μL pure water. The mixture was centrifuged at 10,000 rpm for 10 min. All of the supernatant was loaded onto a flash column (25 × 2 mm id, Chromolith; Merck, Darmstadt, Germany). This flash column was connected to an analytical column (50 × 2 mm id, Chromolith; Merck) for HPLC-MS analysis. The separation was conducted using a gradient mobile phase consisting of water (A, containing 0.01% ammonium hydroxide) and acetonitrile (B). The program of the mobile phase was as follows: 10% B for the first 5 min; then a linear gradient of 10–15% B for 5–7 min, 15–40% B for 7–40 min, and 40–70% B for 40–45 min; this composition was maintained for 45–60 min and then returned to the initial condition for 5 min. The flow rate was 0.2 mL/min. The method for the Trap MS detection was the same as previously described.

[2] = test system: human umbilical vein endothelial cells (HUVECs); assay: Tube formation assay on Matrigel; format: cell-based
Procedure: The tube formation assay was performed as previously described with some modifications. Matrigel (BD Biosciences, San Jose, CA, USA) was thawed overnight at 4 °C. Next, 50 μL Matrigel was coated on each well of the pre-chilled 96-well plates and then incubated at 37 °C for 1 h. HUVECs (5 × 10^4 cells/well) were seeded on the Matrigel and treated with various concentrations of Ro (0, 1, 3, 10, 30, 100 μg/mL), R1 (0, 5, 10, 20, 30, 40 μg/mL), IVa (0, 1, 3, 10, 30, 100 μg/mL), and E (0, 2, 4, 6, 8, 10 μg/mL). After incubation for 5 h, the formation of HUVEC tubular structures was captured using a microscope (Nikon eclipse Ti; Nikon, Tokyo, Japan). The tube length was quantified using Image-Pro Plus 6.0 software.

B16F10 melanoma cells = assay: MTT cell viability assay; format: cell-based; conditions: 24 h; for IC50: Mus musculus, B16-F10, MTT, read-out: half maximal inhibitory concentration (IC50)
Procedure: In this study, Ro was dissolved in dimethyl sulfoxide (DMSO) and diluted in DMEM and then filtered using a 0.22 μm membrane. The final concentration of DMSO in cell culture medium was 0.1%, and 0.1% DMSO-treated cells were used as controls. The effect of Ro on B16F10 cell growth in vitro was performed using the MTT assay. Briefly, exponentially growing B16F10 (1 × 10^4 cells/well) cells were seeded onto 96-well plates and incubated for 24 h in complete medium. After 24 h incubation, the cells were treated with various concentrations of Ro (0, 1, 3, 10, 30, 100 μg/mL) for 24 h, and MTT (0.5%, 20 μL) was then added to each well and incubated for an additional 4 h at 37 °C. The formazan crystals were dissolved in DMSO (150 μL), and the absorbance at 490 nm was measured using a microplate reader (BioTek Epoch; BioTek, Winooski, VT, USA)
The metabolites (standard substance) of Ro were dissolved in the same manner as Ro. Briefly, IVa, R1, and E were dissolved in dimethyl sulfoxide (DMSO), diluted in DMEM, and then filtered using a 0.22 μm membrane. The final concentration of DMSO in cell culture medium was 0.1%, and 0.1% DMSO-treated cells were used as controls. The effects of IVa, R1, and E on B16F10 cell growth were evaluated using the MTT assay as previously described. The cells were treated with various concentrations of IVa (0, 1, 3, 10, 30, 100 μg/mL), R1 (0, 5, 10, 20, 30, 40 μg/mL), and E (0, 2, 4, 6 μg/mL) for 24 h. After incubation, MTT (0.5%, 20 μL) was added and incubated for 4 h at 37 °C. Then the supernatants were carefully removed, and 150 μL DMSO was added to each well. After 10 min of incubation and vibration, the absorbance was read at a wavelength of 490 nm. IC50 values were calculated using Probit Analysis with SPSS 22.0 (SPSS Inc., Chicago, IL, USA).

B16F10 melanoma tumour = assay: Tumour xenograft experiment in B16F10 tumour-bearing mice; format: in vivo, C57BL/6J mice; conditions: 15 days; for mean tumour weight: model group 1.50 g; for tumour growth (tumour volume): R1 25, IVa 25, E 5, CTX 20 mg/kg intraperitoneal, vs model group, p < 0.05
Procedure: (§1) An anti-tumour assay was conducted in a mouse xenograft model. B16F10 cells were cultured in DMEM containing 10% FBS. After the collection of cells, the cells were re-suspended in normal saline to the appropriate concentrations. Next, 0.1 mL of the B16F10 cell suspension (1 × 10^6 cells) was subcutaneously injected via the right axillary region of the C57BL/6J mice. The tumour-bearing mice were randomly divided into three groups (n = 6/group): model control group, positive control group, and Ro (25 mg/kg) administration group. […] Normal and model mice were administered normal saline. The mice in the positive control group received CTX (20 mg/kg). The successive intraperitoneal injection of drugs into the mice from the day after tumour inoculation and the body weights were monitored every 2 days. After 15 days, all mice were sacrificed, and tumours were taken out and measured as previously described. The thymus and spleen were also removed and weighed to calculate the thymus and spleen indices. The tumour inhibition rate was calculated. The blood samples were collected from the retrobulbar vessels and added into tubes containing heparin. Subsequently, plasma samples were prepared by centrifugation for 10 min at 3800 rpm and stored at −80 °C for HPLC-MS analysis.
A xenograft experiment was performed using the same method as described in Section 2.2. Briefly, after the mice were inoculated with tumour cells, they were randomly divided into […] (n = 6/group): model control group, positive control group (CTX, 20 mg/kg), R1 (25 mg/kg), IVa (25 mg/kg), and E (5 mg/kg) administration groups. […] Normal and model mice were administered normal saline. Drugs were intraperitoneally injected into the mice for 15 consecutive days. Tumour volumes were measured every 2 days, and tumour growth curves were plotted. At the end of the experiment, the mice were sacrificed, and the tumour weight and tumour growth inhibition rates were calculated.

[3] = Procedure: as §1
Haemolysis test = format: cell-based, Sprague Dawley rats; conditions: Sprague-Dawley, rat, isolated erythrocytes (2% haematocrit suspension), 37 °C, 60 min, read-out: Haemolysis Rate (%)
Procedure: (§2) To evaluate the haemocompatibility of Ro, the haemolysis test was performed as previously described. Arterial blood was obtained from healthy Sprague Dawley rats. Then erythrocytes were separated from the plasma and lymphocytes by centrifugation (3000 rpm, 5 min) at 4 °C, washed three times with normal saline, and suspended in normal physiological saline at a haematocrit of 2%. Erythrocytes were used immediately after isolation. Next, 2.5 mL erythrocyte suspension and 2.5 mL medicated saline solution were added to a 10 mL centrifuge tube. The final concentrations of Ro were 1, 3, 10, 30, and 100 μg/mL. The negative and positive controls were normal physiological saline and 0.2% Triton X-100, respectively. The samples were incubated for a specific time period at 37 °C for 60 min. Next, the tube was centrifuged at 3000 rpm for 5 min. Finally, the optical density (OD) was obtained at a wavelength of 545 nm. Three parallel samples were laid in each group. The mean value of the three samples was obtained as the group OD value. The HR was expressed as the percentage and calculated according to the equation:HR = (ODt − ODn)/(ODp − ODn) × 100%,(1) where ODt indicates the OD value of the tested group, and ODn and ODp are the OD values of the negative and positive control groups, respectively. A haemolysis rate less than 5% is regarded as a nontoxic effect level.

erythrocytes = assay: Haemolysis test; format: cell-based, Sprague Dawley rats; conditions: all concentrations up to 100 μg/mL
Procedure: as §2

[4] = 5 h incubation, IVa 1–100, R1 5–40, E 2–10 μg/mL
[5] = after 15 days intraperitoneal, CTX 20 mg/kg, Ro 25 mg/kg

CC1(C)CC[C@]2(C(=O)O)CC[C@]3(C)C(=CC[C@@H]4[C@@]5(C)CC[C@H](O)C(C)(C)[C@@H]5CC[C@]43C)[C@@H]2C1 [OA, oleanolic acid, reference compound]
detection in plasma of Ro-treated tumour-bearing mice [1]: not detected

CC1(C)CC[C@]2(C(=O)O)CC[C@]3(C)C(=CC[C@@H]4[C@@]5(C)CC[C@H](O[C@@H]6O[C@H](C(=O)O)[C@@H](O)[C@H](O)[C@H]6O[C@@H]6O[C@H](CO)[C@@H](O)[C@H](O)[C@H]6O)C(C)(C)[C@@H]5CC[C@]43C)[C@@H]2C1 [R1, zingibroside R1]
HUVEC tube formation [2, 4]: markedly inhibited | plasma signal intensity of R1 relative to E [1]: ~100 fold | plasma signal intensity of R1 relative to IVa [1]: ~10 fold | plasma signal intensity of R1 relative to Ro [1]: approximately two-fold | detection in plasma of Ro-treated tumour-bearing mice [1]: most abundant metabolite in the plasma | IC50 (B16F10 melanoma cells): 24.5 µg/mL (≈ 30.8 µM) | tumour inhibition rate (B16F10 melanoma tumour; 25 mg/kg intraperitoneal): 46.6% | mean tumour weight (B16F10 melanoma tumour; 25 mg/kg intraperitoneal): 0.80 g | tumour growth (tumour volume) (B16F10 melanoma tumour): significantly suppressed tumour growth

CC1(C)CC[C@]2(C(=O)O[C@@H]3O[C@H](CO)[C@@H](O)[C@H](O)[C@H]3O)CC[C@]3(C)C(=CC[C@@H]4[C@@]5(C)CC[C@H](O[C@@H]6O[C@H](C(=O)O)[C@@H](O)[C@H](O)[C@H]6O[C@@H]6O[C@H](CO)[C@@H](O)[C@H](O)[C@H]6O)C(C)(C)[C@@H]5CC[C@]43C)[C@@H]2C1 [Ro, ginsenoside Ro]
HUVEC tube formation ([2]; 100 μg/mL, 5 h): stimulated tube formation | HUVEC tube formation ([2]; 1–30 μg/mL, 5 h): no effects | Organ Indices Spleen ([3]; mouse, in vivo): 3.54 ± 1.03 ×100, mg/g | Organ Indices Thymus ([3]; mouse, in vivo): 1.67 ± 0.25 ×100, mg/g | Weight (g) After ([3]; mouse, in vivo): 24.73 ± 1.43 g | Weight (g) Before ([3]; mouse, in vivo): 22.91 ± 1.12 g | effect on B16F10 cell growth in vitro (B16F10 melanoma cells; 0, 1, 3, 10, 30, 100 μg/mL): little effect | tumour inhibition rate (B16F10 melanoma tumour; 25 mg/kg intraperitoneal): 75.7% | hemolysis at 60 min, 1 μg/mL (Haemolysis test; 1 μg/mL): 0.15 ± 0.13% | hemolysis at 60 min, 3 μg/mL (Haemolysis test; 3 μg/mL): 0.31 ± 0.13% | hemolysis at 60 min, 10 μg/mL (Haemolysis test; 10 μg/mL): 0.23 ± 0.23% | hemolysis at 60 min, 30 μg/mL (Haemolysis test; 30 μg/mL): 0.15 ± 0.13% | hemolysis at 60 min, 100 μg/mL (Haemolysis test; 100 μg/mL): 0.31 ± 0.35% | haemolysis ratio (HR%) (erythrocytes): less than 5%

CC1(C)CC[C@]2(C(=O)O)CC[C@]3(C)C(=CC[C@@H]4[C@@]5(C)CC[C@H](O[C@@H]6O[C@H](C(=O)O)[C@@H](O)[C@H](O)[C@H]6O)C(C)(C)[C@@H]5CC[C@]43C)[C@@H]2C1 [E, calenduloside E]
HUVEC tube formation [2, 4]: markedly inhibited | IC50 (B16F10 melanoma cells): 2.58 µg/mL (≈ 4.08 µM) | tumour inhibition rate (B16F10 melanoma tumour; 5 mg/kg intraperitoneal): 85.4% | mean tumour weight (B16F10 melanoma tumour; 5 mg/kg intraperitoneal): 0.22 g | tumour growth (tumour volume) (B16F10 melanoma tumour): significantly suppressed tumour growth

CC1(C)CC[C@]2(C(=O)O[C@@H]3O[C@H](CO)[C@@H](O)[C@H](O)[C@H]3O)CC[C@]3(C)C(=CC[C@@H]4[C@@]5(C)CC[C@H](O[C@@H]6O[C@H](C(=O)O)[C@@H](O)[C@H](O)[C@H]6O)C(C)(C)[C@@H]5CC[C@]43C)[C@@H]2C1 [IVa, chikusetsusaponin IVa]
HUVEC tube formation [2, 4]: markedly inhibited | viability (B16F10 melanoma cells; 100 µg/mL): slightly decreased | cytotoxic effects (B16F10 melanoma cells; 1–30 µg/mL): no cytotoxic effects | tumour inhibition rate (B16F10 melanoma tumour; 25 mg/kg intraperitoneal): 64.7% | mean tumour weight (B16F10 melanoma tumour; 25 mg/kg intraperitoneal): 0.53 g | tumour growth (tumour volume) (B16F10 melanoma tumour): significantly suppressed tumour growth

Glycosyl oleanolate
detection in plasma of Ro-treated tumour-bearing mice [1]: not detected

O=P1(N(CCCl)CCCl)NCCCO1 (centres unmarked) [CTX, cyclophosphamide, reference compound]
Organ Indices Spleen [3, 5]: 2.98 ± 0.86 ×100, mg/g | Organ Indices Thymus [3, 5]: 0.56 ± 0.09 ×100, mg/g | Weight (g) After ([3]; body weight after 15 days intraperitoneal, CTX 20 mg/kg, Ro 25 mg/kg): 22.27 ± 1.02 g | Weight (g) Before ([3]; body weight before treatment, CTX 20 mg/kg, Ro 25 mg/kg): 22.29 ± 0.85 g | tumour growth (tumour volume) (B16F10 melanoma tumour): significantly suppressed tumour growth

From paper PMC6721120, “Inhibitory Effects of Ginsenoside Ro on the Growth of B16F10 Melanoma via Its Metabolites” (Molecules, 2019)
